Measured values taken from publication PMC11240878, “Synthesis, enzyme inhibition assay, and molecular modeling study of novel pyrazolines linked to 4-methylsulfonylphenyl scaffold: antitumor activity and cell cycle analysis” (RSC Advances, 2024).

Key:
K-562 = experiment: NCI single-dose GI%, leukemia; assay type: cell-based, human; settings: K-562, leukemia; 10.0 μM in one dose
leukemia HL-60 = experiment: cells; settings: Homo sapiens, HL-60, 48 h, read-out: In vitro cytotoxicity IC50
Protocol: (§1) The antitumor experiment was conducted on 59 human tumor cell lines derived from nine different human tissues, following the procedure of the Drug Evaluation Branch at the NCI, Bethesda, MD.[33]

MDA-MB-231 = experiment: cells; settings: Homo sapiens, MDA-MB-231, 48 h, read-out: In vitro cytotoxicity IC50
Protocol: as §1

HOP-62 = experiment: NCI single-dose GI%, NSC lung; assay type: cell-based, human; settings: HOP-62, NSC lung; 10.0 μM in one dose
COX-2 = target: T1, COX-2 (Ovis aries, UniProt P79208); experiment: Colorimetric COX-2 inhibition assay
T1 sequence (P79208 17-603): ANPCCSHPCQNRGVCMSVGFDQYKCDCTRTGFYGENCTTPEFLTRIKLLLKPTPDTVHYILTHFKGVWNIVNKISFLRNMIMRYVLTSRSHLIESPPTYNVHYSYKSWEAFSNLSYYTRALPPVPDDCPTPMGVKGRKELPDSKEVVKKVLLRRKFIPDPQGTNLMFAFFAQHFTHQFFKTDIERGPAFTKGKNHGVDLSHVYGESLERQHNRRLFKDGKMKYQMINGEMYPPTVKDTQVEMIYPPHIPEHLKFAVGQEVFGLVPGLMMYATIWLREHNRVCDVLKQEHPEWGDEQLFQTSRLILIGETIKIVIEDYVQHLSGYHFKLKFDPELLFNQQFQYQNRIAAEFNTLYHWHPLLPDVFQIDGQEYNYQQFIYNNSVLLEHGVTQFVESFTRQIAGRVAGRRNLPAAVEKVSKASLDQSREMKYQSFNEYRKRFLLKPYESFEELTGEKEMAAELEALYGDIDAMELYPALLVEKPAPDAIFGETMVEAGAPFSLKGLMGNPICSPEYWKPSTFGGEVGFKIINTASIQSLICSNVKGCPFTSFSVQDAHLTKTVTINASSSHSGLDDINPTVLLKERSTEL

UO-31 = experiment: NCI single-dose GI%, renal; assay type: cell-based, human; settings: UO-31, renal; 10.0 μM in one dose
HT29 = experiment: NCI single-dose GI%, colon; assay type: cell-based, human; settings: 10.0 μM in one dose
T-47D = experiment: NCI single-dose GI%, breast; assay type: cell-based, human; settings: 10.0 μM in one dose
U251 = experiment: NCI single-dose GI%, CNS; assay type: cell-based, human; settings: 10.0 μM in one dose
A549/ATCC = experiment: NCI single-dose GI%, NSC lung; assay type: cell-based, human; settings: 10.0 μM in one dose
HER2 = HER2 (Homo sapiens, UniProt P04626); experiment: HER2 tyrosine kinase inhibition assay
Chain of HER2 (P04626 23-1255): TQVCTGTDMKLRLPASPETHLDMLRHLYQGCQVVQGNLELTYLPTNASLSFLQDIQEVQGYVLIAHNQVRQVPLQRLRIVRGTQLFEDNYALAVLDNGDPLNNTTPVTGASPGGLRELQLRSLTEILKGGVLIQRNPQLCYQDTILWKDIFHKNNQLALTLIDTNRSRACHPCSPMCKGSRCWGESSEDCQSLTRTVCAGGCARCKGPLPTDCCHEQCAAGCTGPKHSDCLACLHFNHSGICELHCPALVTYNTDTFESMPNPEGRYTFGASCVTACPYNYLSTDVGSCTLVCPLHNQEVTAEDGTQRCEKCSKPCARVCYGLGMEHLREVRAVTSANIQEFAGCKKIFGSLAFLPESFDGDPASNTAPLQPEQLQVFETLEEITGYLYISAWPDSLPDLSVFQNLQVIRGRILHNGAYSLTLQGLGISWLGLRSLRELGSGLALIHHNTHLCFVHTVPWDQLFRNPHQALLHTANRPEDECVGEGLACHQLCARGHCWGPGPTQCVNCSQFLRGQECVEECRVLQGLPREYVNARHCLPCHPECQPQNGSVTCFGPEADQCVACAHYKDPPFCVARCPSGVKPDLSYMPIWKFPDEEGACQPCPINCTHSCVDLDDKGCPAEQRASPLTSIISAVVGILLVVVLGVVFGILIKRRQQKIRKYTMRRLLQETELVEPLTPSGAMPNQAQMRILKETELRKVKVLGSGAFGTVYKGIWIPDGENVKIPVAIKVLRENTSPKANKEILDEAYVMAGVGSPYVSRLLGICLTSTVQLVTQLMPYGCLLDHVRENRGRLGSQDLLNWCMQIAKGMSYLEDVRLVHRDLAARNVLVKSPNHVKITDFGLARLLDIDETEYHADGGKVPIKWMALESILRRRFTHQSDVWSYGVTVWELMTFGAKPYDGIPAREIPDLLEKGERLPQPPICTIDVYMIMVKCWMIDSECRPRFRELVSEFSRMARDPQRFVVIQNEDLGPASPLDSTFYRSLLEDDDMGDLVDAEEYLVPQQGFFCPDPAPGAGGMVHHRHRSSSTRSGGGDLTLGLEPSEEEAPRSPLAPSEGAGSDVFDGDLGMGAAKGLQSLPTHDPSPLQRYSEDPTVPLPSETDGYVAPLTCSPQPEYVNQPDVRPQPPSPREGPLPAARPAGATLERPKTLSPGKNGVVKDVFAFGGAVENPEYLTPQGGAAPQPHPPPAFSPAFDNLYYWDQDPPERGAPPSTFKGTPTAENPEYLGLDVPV

MCF7 = experiment: NCI single-dose GI%, breast; assay type: cell-based, human; settings: 10.0 μM in one dose
[1] = test system: breast adenocarcinoma MCF-7; experiment: cells; settings: Homo sapiens, MCF7, 48 h, read-out: In vitro cytotoxicity IC50, MCF-7; MTT, 48 h drug exposure; mean ± SD of three experiments
MOLT-4 = experiment: NCI single-dose GI%, leukemia; assay type: cell-based, human; settings: MOLT-4, leukemia; 10.0 μM in one dose
BT-549 = experiment: NCI single-dose GI%, breast; assay type: cell-based, human; settings: BT-549, breast; 10.0 μM in one dose
HL-60 cells = experiment: Cell cycle analysis by flow cytometry; assay type: cell-based, human; settings: at IC50 concentration
Protocol: Flow cytometry measures cell growth in different cell cycle phases (G0–G1, S, G2/M and pre-G1).[33,77] This study aimed to find out how the target compounds affect the growth of cancer cells by examining at how they change the cell cycle and cause apoptosis in HL-60 cells.
The cell cycle analysis was conducted similarly to our prior study, using the leukemia HL-60 cell line. The cells were stained with the DNA fluorochrome PI and analyzed using a FACSCalibur flow cytometer.[33,77]

[2] = test system: WI-38 normal fibroblast cells; experiment: in vitro; settings: ratio of WI38 IC50 to cancer cell IC50 values
Protocol: (§2) A normal fibroblast-like fetal lung cell line (WI-38) was used to further investigate the therapeutic safety of the newly synthesized hybrids and evaluate their selective cytotoxicity toward normal and tumor cells.[33,77]
as §1

in vitro = settings: human
Protocol: as §2, §1

59 cancer cell lines = experiment: NCI 59 cancer cell line panel, single dose; assay type: cell-based, human; settings: 10 μM single dose; for MG% (mean growth percent): 59 cell lines; for Mean GI% Breast cancer: breast cancer subpanel; for Mean GI% Leukemia: leukemia subpanel
[3] = test system: caspase-9 in MDA-MB-231 cells; experiment: Apoptotic markers assay, caspase-9; assay type: cell-based, human; settings: at IC50 concentration, vs untreated control
Protocol: (§3) The levels of Bax (apoptosis promoter), Bcl-2 (apoptosis inhibitor), and apoptosis coordination enzymes (caspase-3 and caspase-9) were measured.[78–80]
(§4) Apoptotic markers experiment was performed according to reported procedure using MDA-MB-231 cancer cell line.[78–80]

NCI-H522 = experiment: NCI single-dose GI%, NSC lung; assay type: cell-based, human; settings: 10.0 μM in one dose
PC-3 = experiment: NCI single-dose GI%, prostate; assay type: cell-based, human; settings: PC-3, prostate; 10.0 μM in one dose
[4] = test system: caspase-3 in MDA-MB-231 cells; experiment: Apoptotic markers assay, caspase-3; assay type: cell-based, human; settings: at IC50 concentration, vs untreated control
Protocol: as §3, §4

CAKI-1 = experiment: NCI single-dose GI%, renal; assay type: cell-based, human; settings: CAKI-1, renal; 10.0 μM in one dose
EGFR = EGFR (Homo sapiens, UniProt P00533); experiment: EGFR tyrosine kinase inhibition assay
Chain of EGFR (P00533 25-1210): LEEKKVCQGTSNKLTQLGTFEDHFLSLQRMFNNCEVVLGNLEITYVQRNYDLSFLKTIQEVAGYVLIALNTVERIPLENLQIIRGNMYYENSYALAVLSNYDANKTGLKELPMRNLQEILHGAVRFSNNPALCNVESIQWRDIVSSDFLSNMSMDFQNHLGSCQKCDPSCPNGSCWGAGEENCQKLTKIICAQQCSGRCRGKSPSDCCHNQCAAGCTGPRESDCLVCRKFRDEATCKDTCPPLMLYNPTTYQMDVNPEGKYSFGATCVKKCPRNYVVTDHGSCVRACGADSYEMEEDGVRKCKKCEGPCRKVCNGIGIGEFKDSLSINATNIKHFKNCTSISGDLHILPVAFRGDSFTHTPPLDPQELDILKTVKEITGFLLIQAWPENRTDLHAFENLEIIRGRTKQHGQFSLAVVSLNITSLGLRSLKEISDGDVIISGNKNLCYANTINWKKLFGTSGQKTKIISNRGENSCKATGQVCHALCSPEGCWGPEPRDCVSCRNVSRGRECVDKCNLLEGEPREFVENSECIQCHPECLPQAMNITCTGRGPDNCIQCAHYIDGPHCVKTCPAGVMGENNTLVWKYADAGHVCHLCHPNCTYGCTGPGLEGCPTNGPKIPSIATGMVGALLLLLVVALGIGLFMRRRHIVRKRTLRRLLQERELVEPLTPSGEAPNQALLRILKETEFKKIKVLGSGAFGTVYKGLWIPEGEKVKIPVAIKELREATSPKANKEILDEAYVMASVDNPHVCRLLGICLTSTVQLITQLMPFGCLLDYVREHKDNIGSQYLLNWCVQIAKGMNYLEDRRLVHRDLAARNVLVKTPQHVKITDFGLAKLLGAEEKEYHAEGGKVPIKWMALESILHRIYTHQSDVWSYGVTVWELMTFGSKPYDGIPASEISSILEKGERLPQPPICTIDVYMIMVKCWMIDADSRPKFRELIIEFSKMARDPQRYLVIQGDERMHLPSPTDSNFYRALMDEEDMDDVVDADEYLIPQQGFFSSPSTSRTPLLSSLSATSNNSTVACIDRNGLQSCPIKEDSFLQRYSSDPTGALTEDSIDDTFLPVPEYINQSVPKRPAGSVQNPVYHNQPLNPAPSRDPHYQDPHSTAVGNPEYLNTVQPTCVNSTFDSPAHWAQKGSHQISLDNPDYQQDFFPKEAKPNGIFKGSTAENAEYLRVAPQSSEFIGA

UACC-257 = experiment: NCI single-dose GI%, melanoma; assay type: cell-based, human; settings: UACC-257, melanoma; 10.0 μM in one dose
COLO 205 = experiment: NCI single-dose GI%, colon; assay type: cell-based, human; settings: COLO 205, colon; 10.0 μM in one dose
EKVX = experiment: NCI single-dose GI%, NSC lung; assay type: cell-based, human; settings: 10.0 μM in one dose

IC50 (COX-2) [µM] | IC50 (HER2) [µM] | Structure (SMILES) | GI% (K-562) [%] | IC50 (leukemia HL-60) [µM] | IC50 (MDA-MB-231) [µM] | GI% (HOP-62) [%] | GI% (UO-31) [%] | GI% (HT29) [%] | GI% (T-47D) [%] | GI% (U251) [%] | GI% (A549/ATCC) [%] | GI% (MCF7) [%] | IC50 [1] [µM] | GI% (MOLT-4) [%] | GI% (BT-549) [%] | % G0–G1 (HL-60 cells) [%] | % G2–M (HL-60 cells) [%] | % Pre-G1 (HL-60 cells) [%] | % S (HL-60 cells) [%] | phase of cell cycle arrest (HL-60 cells) | also measured
127 ± 8.23 | 1.43 ± 0.047 | CS(=O)(=O)c1ccc(C(=O)N2N=C(c3ccccc3)CC2c2ccc(F)cc2)cc1 (stereo not drawn) [Compound 18c, (5-(4-Fluorophenyl)-3-phenyl-4,5-dihydro-1H-pyrazol-1-yl)(4-(methylsulfonyl)phenyl)methanone] | 33 | 8.43 ± 1.7 | 12.5 ± 0.56 | 26 | 20 | 19 | 24 | 12 | 32 | 11 | 16.2 ± 0.72 | 39 | 14 | 51.19 | 17.53 | 8.07 | 31.28 | S/G2 phase | Mean tumor selectivity index (WI38/HL60, MCF7, and MDA-MB-231) [2]: 3.02; IC50 at 48 h (in vitro): 34.8 ± 1.54 µM; PCE (positive cytotoxic effect: ratio of cell lines with growth inhibition >10% to total cell lines) (59 cancer cell lines): 21/59; MG% (mean growth percent) (59 cancer cell lines): 90.58%; Mean GI% Breast cancer (59 cancer cell lines): 16%; Mean GI% Leukemia (59 cancer cell lines): 35%; Casp9 gene expression (fold change) [3]: 5.158 fold change; GI% (NCI-H522): 48%; GI% (PC-3): 17%; Casp3 gene expression (fold change) [4]: 7.453 fold change; GI% (CAKI-1): 22%; IC50 (EGFR): 1.12 ± 0.037 µM; GI% (UACC-257): 32%; GI% (COLO 205): 22%; GI% (EKVX): 15%
94 ± 4.41 | 0.496 ± 0.016 | Cc1ccc(C2=NN(C(=O)c3ccc(S(C)(=O)=O)cc3)C(c3ccc(C)cc3)C2)cc1 (stereo not drawn) [Compound 18g, (3,5-Bis(4-tolyl)-4,5-dihydro-1H-pyrazol-1-yl)(4-(methylsulfonyl)phenyl)methanone] | 80 | 10.4 ± 0.68 | 4.07 ± 0.18 | 26 | 26 | 15 | 32 | 23 | 43 | 52 | 11.7 ± 0.96 | 56 | 27 | 43.52 | 29.09 | 13.69 | 27.39 | S/G2 phase | Mean tumor selectivity index (WI38/HL60, MCF7, and MDA-MB-231) [2]: 3.73; IC50 at 48 h (in vitro): 26.2 ± 1.16 µM; PCE (positive cytotoxic effect: ratio of cell lines with growth inhibition >10% to total cell lines) (59 cancer cell lines): 48/59; MG% (mean growth percent) (59 cancer cell lines): 72.98%; Mean GI% Breast cancer (59 cancer cell lines): 31%; Mean GI% Leukemia (59 cancer cell lines): 63%; Casp9 gene expression (fold change) [3]: 4.386 fold change; GI% (NCI-H522): 73%; GI% (PC-3): 33%; Casp3 gene expression (fold change) [4]: 3.945 fold change; GI% (CAKI-1): 43%; IC50 (EGFR): 1.02 ± 0.034 µM; GI% (UACC-257): 40%; GI% (COLO 205): 33%; GI% (EKVX): 25%
19.3 ± 0.72 | 0.253 ± 0.008 | CS(=O)(=O)c1ccc(C(=O)N2N=C(c3ccccc3)CC2c2ccccc2O)cc1 (stereo not drawn) [Compound 18h, (5-(2-Hydroxyphenyl)-3-phenyl-4,5-dihydro-1H-pyrazol-1-yl)(4-(methylsulfonyl)phenyl)methanone] | 55 | 8.99 ± 0.4 | 7.18 ± 0.32 | 47 | 47 | 20 | 30 | 48 | 45 | 22 | 12.4 | 62 | 19 | 53.27 | 17.07 | 10.77 | 29.66 | S/G2 phase | Mean tumor selectivity index (WI38/HL60, MCF7, and MDA-MB-231) [2]: 4.51; IC50 at 48 h (in vitro): 40.9 ± 1.81 µM; PCE (positive cytotoxic effect: ratio of cell lines with growth inhibition >10% to total cell lines) (59 cancer cell lines): 51/59; MG% (mean growth percent) (59 cancer cell lines): 72.20%; Mean GI% Breast cancer (59 cancer cell lines): 24%; Mean GI% Leukemia (59 cancer cell lines): 46%; Casp9 gene expression (fold change) [3]: 2.799 fold change; GI% (NCI-H522): 55%; GI% (PC-3): 21%; Casp3 gene expression (fold change) [4]: 5.559 fold change; GI% (CAKI-1): 33%; IC50 (EGFR): 0.574 ± 0.019 µM; GI% (UACC-257): 39%; GI% (COLO 205): 20%; GI% (EKVX): 41%
